The record followed here is PMC3032553, “Structural Basis for c-di-GMP-Mediated Inside-Out Signaling Controlling Periplasmic Proteolysis” (PLoS Biology, 2011).

The target of data set [1] is T1, LapD^dual (Pseudomonas fluorescens, UniProt Q3KK31, E262A).
T1 construct: cytoplasmic S helix-GGDEF-EAL dual domain module, residues 220-648, lacks HAMP; purified; apo monomer, dimerizes with c-di-GMP
T1 sequence (Q3KK31 220-648 E262A): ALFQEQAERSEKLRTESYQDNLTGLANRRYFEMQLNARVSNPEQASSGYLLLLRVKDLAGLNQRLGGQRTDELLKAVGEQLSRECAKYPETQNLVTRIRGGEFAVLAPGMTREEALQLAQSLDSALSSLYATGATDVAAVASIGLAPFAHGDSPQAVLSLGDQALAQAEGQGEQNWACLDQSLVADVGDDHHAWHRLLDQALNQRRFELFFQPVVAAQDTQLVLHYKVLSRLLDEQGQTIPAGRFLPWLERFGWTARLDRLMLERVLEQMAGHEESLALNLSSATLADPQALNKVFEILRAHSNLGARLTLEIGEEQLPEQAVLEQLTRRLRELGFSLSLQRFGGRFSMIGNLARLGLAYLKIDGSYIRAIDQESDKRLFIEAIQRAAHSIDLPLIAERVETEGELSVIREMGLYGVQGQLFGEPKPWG
As to the kind of experiment: radioligand filter binding, one-site fit. Conditions: read-out: Apparent K d. From the text: (§1) radioligand filter binding, one-site fit on LapD^dual

The target of data set [2] is T2, LapD^dual (Pseudomonas fluorescens, UniProt Q3KK31, A602E).
T2 construct: cytoplasmic S helix-GGDEF-EAL dual domain module, residues 220-648, lacks HAMP; purified; apo monomer, dimerizes with c-di-GMP
T2 sequence (Q3KK31 220-648 A602E): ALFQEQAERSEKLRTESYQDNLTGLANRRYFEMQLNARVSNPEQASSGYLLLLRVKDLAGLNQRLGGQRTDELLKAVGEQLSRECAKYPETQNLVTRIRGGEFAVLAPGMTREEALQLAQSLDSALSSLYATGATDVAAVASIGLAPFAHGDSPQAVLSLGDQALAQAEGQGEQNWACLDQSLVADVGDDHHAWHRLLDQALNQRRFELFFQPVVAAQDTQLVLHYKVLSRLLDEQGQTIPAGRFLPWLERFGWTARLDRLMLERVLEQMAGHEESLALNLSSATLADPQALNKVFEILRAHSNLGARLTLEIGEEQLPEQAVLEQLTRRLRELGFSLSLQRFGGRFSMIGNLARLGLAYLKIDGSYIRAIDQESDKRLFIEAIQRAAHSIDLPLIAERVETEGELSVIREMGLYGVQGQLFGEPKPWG
As to the kind of experiment: radioligand filter binding, one-site fit. To be noted: read-out: Apparent K d.
Text: as §1

Data set [3] concerns the target T3, LapD^dual (Pseudomonas fluorescens, UniProt Q3KK31, S229D).
T3 construct: cytoplasmic S helix-GGDEF-EAL dual domain module, residues 220-648, lacks HAMP; purified; apo monomer, dimerizes with c-di-GMP
T3 sequence (Q3KK31 220-648 S229D): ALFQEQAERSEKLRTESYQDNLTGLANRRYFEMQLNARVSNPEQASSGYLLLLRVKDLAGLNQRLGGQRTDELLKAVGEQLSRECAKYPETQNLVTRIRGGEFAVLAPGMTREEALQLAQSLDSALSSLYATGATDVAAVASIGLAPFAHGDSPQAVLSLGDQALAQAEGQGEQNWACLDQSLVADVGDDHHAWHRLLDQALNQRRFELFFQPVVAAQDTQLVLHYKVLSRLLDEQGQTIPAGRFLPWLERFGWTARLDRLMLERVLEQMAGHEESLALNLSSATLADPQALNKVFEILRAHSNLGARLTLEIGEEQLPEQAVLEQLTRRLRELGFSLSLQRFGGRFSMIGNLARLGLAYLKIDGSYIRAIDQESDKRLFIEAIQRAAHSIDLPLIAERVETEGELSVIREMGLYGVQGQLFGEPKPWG
Description: radioligand filter binding, one-site fit. To be noted: read-out: Apparent K d.
Text: as §1

Data set [4] deals with T4, LapD^dual (Pseudomonas fluorescens, UniProt Q3KK31).
T4 construct: cytoplasmic S helix-GGDEF-EAL dual domain module, residues 220-648, lacks HAMP; purified; apo monomer, dimerizes with c-di-GMP
T4 sequence (Q3KK31 220-648): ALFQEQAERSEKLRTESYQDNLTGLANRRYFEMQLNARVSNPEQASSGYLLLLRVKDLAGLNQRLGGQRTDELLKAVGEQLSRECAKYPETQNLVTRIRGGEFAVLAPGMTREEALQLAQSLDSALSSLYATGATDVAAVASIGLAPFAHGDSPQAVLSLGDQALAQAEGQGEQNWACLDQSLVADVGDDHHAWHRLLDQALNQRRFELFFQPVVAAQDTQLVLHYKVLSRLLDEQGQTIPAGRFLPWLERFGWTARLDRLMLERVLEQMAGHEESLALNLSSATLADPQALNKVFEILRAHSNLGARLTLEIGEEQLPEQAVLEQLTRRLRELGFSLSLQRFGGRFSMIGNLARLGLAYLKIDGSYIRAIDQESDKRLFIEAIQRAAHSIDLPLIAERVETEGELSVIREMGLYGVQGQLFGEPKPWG
Description: radioligand filter binding, one-site fit. Conditions: read-out: Apparent K d.
Text: as §1

The target in data set [5] is T5, LapD^dual (Pseudomonas fluorescens, UniProt Q3KK31, A602E/S229D).
T5 construct: cytoplasmic S helix-GGDEF-EAL dual domain module, residues 220-648, lacks HAMP; purified; apo monomer, dimerizes with c-di-GMP
T5 sequence (Q3KK31 220-648 S229D/A602E): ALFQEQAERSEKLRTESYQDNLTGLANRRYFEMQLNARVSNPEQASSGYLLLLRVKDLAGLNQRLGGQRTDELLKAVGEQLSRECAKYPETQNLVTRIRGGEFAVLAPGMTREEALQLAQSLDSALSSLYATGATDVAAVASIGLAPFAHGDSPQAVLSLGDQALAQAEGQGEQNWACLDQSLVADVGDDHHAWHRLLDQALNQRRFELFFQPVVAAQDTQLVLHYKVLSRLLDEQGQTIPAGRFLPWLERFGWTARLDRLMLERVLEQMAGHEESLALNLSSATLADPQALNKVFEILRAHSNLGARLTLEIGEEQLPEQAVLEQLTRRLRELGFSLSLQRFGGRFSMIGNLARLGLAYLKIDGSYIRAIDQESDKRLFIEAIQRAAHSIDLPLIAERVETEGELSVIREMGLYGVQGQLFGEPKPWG
As to the kind of experiment: radioligand filter binding, one-site fit. Conditions: read-out: Apparent K d.
Text: as §1

The target in data set [6] is T6, LapD^EAL (Pseudomonas fluorescens, UniProt Q3KK31, A602E).
T6 construct: isolated degenerate EAL domain, residues 399-648; purified; dimer with c-di-GMP
T6 sequence (Q3KK31 399-648 A602E): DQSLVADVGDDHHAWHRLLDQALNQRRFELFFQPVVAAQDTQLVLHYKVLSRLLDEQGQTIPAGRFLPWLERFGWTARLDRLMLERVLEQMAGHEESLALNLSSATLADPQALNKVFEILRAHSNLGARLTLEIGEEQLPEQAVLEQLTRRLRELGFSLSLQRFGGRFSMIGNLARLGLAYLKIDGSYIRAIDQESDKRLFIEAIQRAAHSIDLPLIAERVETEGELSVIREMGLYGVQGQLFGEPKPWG
Description: radioligand filter binding, one-site fit. Conditions: read-out: Apparent K d. From the text: radioligand filter binding, one-site fit on LapD^EAL

Data set [7] concerns the molecule itself. As to the kind of experiment: AUC; sedimentation equilibrium, no c-di-GMP; 1x, 2x, 4x dilutions of ~12 µM protein; 25 mM Tris pH 7.5, 150 mM NaCl; 20°C; 10,000, 14,000 and 20,000 rpm, global fit; monomer:dimer equilibrium.
Data set [8] concerns the molecule itself. Description: AUC; sedimentation equilibrium with 20 µM c-di-GMP; 1x, 2x, 4x dilutions of ~12 µM protein; 25 mM Tris pH 7.5, 150 mM NaCl; 20°C; global fit with dinucleotide binding and dimerization of the c-di-GMP-bound form; monomer:dimer equilibrium.

Some results are limits rather than exact numbers.

On to `Nc1nc2c(ncn2[C@@H]2O[C@@H]3CO[P@](=O)(O)O[C@H]4[C@@H](O)[C@H](n5cnc6c(=O)[nH]c(N)nc65)O[C@@H]4CO[P@](=O)(O)O[C@H]3[C@H]2O)c(=O)[nH]1` [c-di-GMP], for which the Kd is 15.3 ± 1.7 µM in data set [1]; above 1000 µM in data set [2]; 15.1 ± 1.8 µM in data set [3]; 27 ± 4.7 µM in data set [4]; above 1000 µM in data set [5]; 36.3 ± 5.4 µM in data set [6].

B1: LapD^dual S229D (domain or fragment, P. fluorescens Pf0-1, UniProt Q3KK31 220-648, looked up)
chain: ALFQEQAERDEKLRTESYQDNLTGLANRRYFEMQLNARVSNPEQASSGYLLLLRVKDLAGLNQRLGGQRTDELLKAVGEQLSRECAKYPETQNLVTRIRGGEFAVLAPGMTREEALQLAQSLDSALSSLYATGATDVAAVASIGLAPFAHGDSPQAVLSLGDQALAQAEGQGEQNWACLDQSLVADVGDDHHAWHRLLDQALNQRRFELFFQPVVAAQDTQLVLHYKVLSRLLDEQGQTIPAGRFLPWLERFGWTARLDRLMLERVLEQMAGHEESLALNLSSATLADPQALNKVFEILRAHSNLGARLTLEIGEEQLPEQAVLEQLTRRLRELGFSLSLQRFGGRFSMIGNLARLGLAYLKIDGSYIRAIDQESDKRLFIEAIQRAAHSIDLPLIAERVETEGELSVIREMGLYGVQGQLFGEPKPWG
notes: LapD, P. fluorescens Pf0-1, residues 220-648, mutation S229D in the S helix; also called S helix-EAL interface mutant; source: produced following standard molecular biology and liquid chromatography techniques, purified (protocols in Text S1)
In the case of B1, the Kd turned out to be 420 µM in data set [7] and 0.18 µM in data set [8].

B2: LapD^dual, wild-type (dual GGDEF-EAL domain module of LapD, residues 220-648) (domain or fragment, P. fluorescens Pf0-1, UniProt Q3KK31 220-648, looked up)
chain: ALFQEQAERSEKLRTESYQDNLTGLANRRYFEMQLNARVSNPEQASSGYLLLLRVKDLAGLNQRLGGQRTDELLKAVGEQLSRECAKYPETQNLVTRIRGGEFAVLAPGMTREEALQLAQSLDSALSSLYATGATDVAAVASIGLAPFAHGDSPQAVLSLGDQALAQAEGQGEQNWACLDQSLVADVGDDHHAWHRLLDQALNQRRFELFFQPVVAAQDTQLVLHYKVLSRLLDEQGQTIPAGRFLPWLERFGWTARLDRLMLERVLEQMAGHEESLALNLSSATLADPQALNKVFEILRAHSNLGARLTLEIGEEQLPEQAVLEQLTRRLRELGFSLSLQRFGGRFSMIGNLARLGLAYLKIDGSYIRAIDQESDKRLFIEAIQRAAHSIDLPLIAERVETEGELSVIREMGLYGVQGQLFGEPKPWG
notes: LapD, P. fluorescens Pf0-1, residues 220-648 (S helix, degenerate GGDEF and EAL domains); also called apo-LapD^dual; intracellular module of LapD; source: produced following standard molecular biology and liquid chromatography techniques, purified (protocols in Text S1)
Regarding B2, the Kd in data set [7] was found to be 400 µM; in data set [8], 0.67 µM.
